Test results reported in article PMC9303812, “Asymmetrically Substituted m‐Terphenyl Phosphates Inhibit the Transcription Factor STAT5a” (Chembiochem, 2021).
Like-named read-outs stand apart in the source and are kept apart here.

What was measured:
STAT3 = STAT3 (Homo sapiens, UniProt P40763); assay: Fluorescence polarization (FP) binding assay, STAT3
Experimental: (§1) Table S1: Activities of test compounds against STAT5a and STAT5b in FP assays . Experiments were carried out in triplicate (n = 3) unless stated otherwise. n/a: not applicable.
(§2) [a]data taken from the literature.[1]
(§3) Ki values were calculated from IC50 values using the published equation.[2] […]
(§4) Table S2: Activities of 12 against STAT5 proteins in FP assays.
(§5) Fluorescence polarization assays
(§6) Fluorescence polarization assays were essentially carried out as previously described.[1] These assays quantitate to which extent a test compound is able to interfere with binding between a STAT protein and a fluorescein-labeled phosphotyrosine-containing peptide, which is known to bind to the SH2 domain of the respective STAT protein. The following protein […]
(§7) concentrations were used: 100 nM for STAT1, 150 nM for STAT3, 30 nM for STAT4, 180 nM for STAT5a, 90 nM for STAT5b and 105 nM for STAT6. All peptides were used at a concentration of 10 nM. The following peptides were used: 5 -carboxyfluorescein -GpYDKPHVL for STAT1; 5-carboxyfluorescein -GpYLPQTV-NH2 for STAT3; 5-carboxyfluorescein-GpYLPQNID-OH for STAT4; 5-carboxyfluorescein-GpYLVLDKW for STAT5a/b, and 5-carboxyfluorescein-GpYVPWQDLI-OH for STAT6. As a buffer system, 10 mM Tris (pH 8.0), 50 mM NaCl, 1 mM EDTA, 1 mM DTT, 0.1 % Nonidet P-40 substitute, and 2 % DMSO in water was used. All compounds tested were incubated for 1 h with the protein. Subsequently, the fluorescein-labeled peptide was added and the fluorescence polarization was measured with an Infinite F500 plate reader (Tecan) after another hour. IC50 values were converted to Ki-values using the published equation.[2]

STAT5a = molecular target: T1, STAT5a (Homo sapiens, UniProt P42229); assay: Fluorescence polarization (FP) binding assay, STAT5a; conditions: for selectivity with respect to other STAT family members: FP assays against STAT1, STAT3, STAT4, STAT6
T1 sequence (P42229 1-794): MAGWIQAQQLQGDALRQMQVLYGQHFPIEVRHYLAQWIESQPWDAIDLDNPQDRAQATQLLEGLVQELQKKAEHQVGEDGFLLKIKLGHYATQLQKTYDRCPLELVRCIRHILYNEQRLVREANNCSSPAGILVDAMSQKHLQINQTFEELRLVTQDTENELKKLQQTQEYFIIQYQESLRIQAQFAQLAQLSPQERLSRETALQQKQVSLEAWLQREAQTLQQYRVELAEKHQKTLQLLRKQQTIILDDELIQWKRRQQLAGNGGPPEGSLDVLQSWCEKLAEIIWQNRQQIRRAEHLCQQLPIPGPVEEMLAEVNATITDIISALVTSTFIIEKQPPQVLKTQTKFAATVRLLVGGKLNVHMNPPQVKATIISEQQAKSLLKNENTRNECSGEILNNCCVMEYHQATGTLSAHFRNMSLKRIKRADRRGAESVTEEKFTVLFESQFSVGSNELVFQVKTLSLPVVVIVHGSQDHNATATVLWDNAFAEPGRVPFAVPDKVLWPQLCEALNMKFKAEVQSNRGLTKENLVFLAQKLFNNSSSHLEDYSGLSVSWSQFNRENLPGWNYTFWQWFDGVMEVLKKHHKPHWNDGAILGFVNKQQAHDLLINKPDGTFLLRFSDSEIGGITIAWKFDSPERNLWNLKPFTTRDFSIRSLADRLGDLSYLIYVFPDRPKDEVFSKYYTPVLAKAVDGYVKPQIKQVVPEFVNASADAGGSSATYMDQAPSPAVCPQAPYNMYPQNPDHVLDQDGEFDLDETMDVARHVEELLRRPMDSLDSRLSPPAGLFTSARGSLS
Experimental: as §1, §2, §3, §4, §5, §6, §7

STAT3, sequence (P40763 whole entry, species assumed): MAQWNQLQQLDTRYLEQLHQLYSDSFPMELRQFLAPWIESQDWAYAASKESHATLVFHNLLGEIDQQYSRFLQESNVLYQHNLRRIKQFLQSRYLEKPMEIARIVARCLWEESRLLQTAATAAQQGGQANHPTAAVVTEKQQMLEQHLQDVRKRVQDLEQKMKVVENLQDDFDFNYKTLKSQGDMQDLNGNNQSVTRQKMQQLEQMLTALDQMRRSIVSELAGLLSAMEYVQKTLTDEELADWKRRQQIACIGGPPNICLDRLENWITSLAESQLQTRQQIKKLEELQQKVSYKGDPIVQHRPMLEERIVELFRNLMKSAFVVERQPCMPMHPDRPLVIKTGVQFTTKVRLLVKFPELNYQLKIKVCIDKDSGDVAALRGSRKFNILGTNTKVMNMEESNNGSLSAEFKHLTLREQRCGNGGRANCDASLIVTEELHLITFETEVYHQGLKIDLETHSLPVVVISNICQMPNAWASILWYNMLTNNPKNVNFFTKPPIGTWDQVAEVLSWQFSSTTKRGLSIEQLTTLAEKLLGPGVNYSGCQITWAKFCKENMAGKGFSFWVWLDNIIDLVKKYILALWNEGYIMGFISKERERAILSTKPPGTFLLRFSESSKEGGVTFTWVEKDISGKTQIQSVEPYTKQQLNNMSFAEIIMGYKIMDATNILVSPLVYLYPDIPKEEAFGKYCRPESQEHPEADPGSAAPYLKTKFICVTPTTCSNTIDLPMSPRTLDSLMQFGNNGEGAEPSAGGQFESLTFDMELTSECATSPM

IC50 (STAT3; FP assay) [µM]	Ki (STAT3; FP assay, Ki calculated from IC50 (n=3)) [µM]	Ki (STAT5a; FP assay, Ki calculated from IC50 (n=3; 6 a n=2), read-out: STAT5a Ki) [µM]	IC50 (STAT5a; FP assay, n=3 (6a n=2), read-out: STAT5a IC50) [µM]	Structure (SMILES)	selectivity with respect to other STAT family members (STAT5a)	inhibition at 200 µM (STAT3; read-out: STAT3 inhibition at 200 μM) [%]	IC50 (STAT5a) [µM]	Ki (STAT5a) [µM]
145 ± 6.8	71.7 ± 3.4	20 ± 2.1	40.4 ± 4.3	COc1cc(-c2cc(-c3cc(F)c(F)c(F)c3)cc(C(F)P(=O)(O)O)c2)cc(OC)c1OC (stereo not drawn) [compound 12]	retains selectivity			
				COc1cc(-c2cc(OP(=O)(O)O)cc(-c3cc(F)c(F)c(F)c3)c2)cc(OC)c1OC [6 b]	good selectivity	25 ± 3	22.1 ± 0.4	10.9 ± 0.2
